Legend:
Assay type in all cases: functional
Acanthocheilonema viteae [1] = assay: Compound was tested in vivo for anti-filarial activity against A. viteae through oral route of administration at 200 mg/kg for 5 days and macrofilaricidal response was observed
Acanthocheilonema viteae [2] = assay: Compound was tested in vivo for anti-filarial activity against A. viteae through oral route of administration at 200 mg/kg for 5 days and microfilaricidal response was observed
Acanthocheilonema viteae [3] = assay: Compound was tested in vivo for anti-filarial activity against A. viteae through oral route of administration at 200 mg/kg for 5 days and sterilization of female worms was observed
Acanthocheilonema viteae [4] = assay: Compound was tested in vivo for anti-filarial activity against A. viteae through oral route of administration at 200 mg/kg for 5 days and sterilization of inactive worms was observed

Structure (SMILES): CCCCCCNC1CCCCC1
- Reduction (Acanthocheilonema viteae [1]): 100%
- Reduction (Acanthocheilonema viteae [2]): 0%
- Activity (Acanthocheilonema viteae [3]): 0%

Structure (SMILES): CCCCNc1ccc(F)c(Cl)c1
- Reduction (Acanthocheilonema viteae [1]): 0%
- Reduction (Acanthocheilonema viteae [2]): 32%
- Activity (Acanthocheilonema viteae [4]): 0%

Structure (SMILES): CCCCCCNc1ccc(F)c(Cl)c1
- Reduction (Acanthocheilonema viteae [1]): 88%
- Reduction (Acanthocheilonema viteae [2]): 50%
- Activity (Acanthocheilonema viteae [3]): 0%

Structure (SMILES): CCCCN(CCCC)C1CCCCC1
- Reduction (Acanthocheilonema viteae [1]): 0%
- Reduction (Acanthocheilonema viteae [2]): 93%
- Activity (Acanthocheilonema viteae [3]): 50%

Structure (SMILES): CCCCCCNc1ccccc1
- Reduction (Acanthocheilonema viteae [1]): 50%
- Reduction (Acanthocheilonema viteae [2]): 58%
- Activity (Acanthocheilonema viteae [3]): 0%

Structure (SMILES): CCCCN(CCCC)c1ccccc1
- Reduction (Acanthocheilonema viteae [1]): 0%
- Reduction (Acanthocheilonema viteae [2]): 77%
- Activity (Acanthocheilonema viteae [4]): 55%

Structure (SMILES): CCCCCCCNc1ccccc1
- Reduction (Acanthocheilonema viteae [1]): 0%
- Reduction (Acanthocheilonema viteae [2]): 69%
- Activity (Acanthocheilonema viteae [3]): 0%

Structure (SMILES): CCCCN(CCCC)c1ccc(F)cc1
- Reduction (Acanthocheilonema viteae [1]): 0%
- Reduction (Acanthocheilonema viteae [2]): 81%
- Activity (Acanthocheilonema viteae [4]): 50%

Structure (SMILES): CCCCCCNc1ccc(F)cc1
- Reduction (Acanthocheilonema viteae [1]): 50%
- Reduction (Acanthocheilonema viteae [2]): 0%
- Activity (Acanthocheilonema viteae [3]): 0%

From ChEMBL document CHEMBL1133387, “Secondary amines as new pharmacophores for macrofilaricidal drug design” (2000)
